Measurements from ChEMBL document CHEMBL4602662, “Orthoscuticellines A-E, β-Carboline Alkaloids from the Bryozoan Orthoscuticella ventricosa Collected in Australia” (J Nat Prod, 2020).

How the values were obtained:
Plasmodium falciparum [1] = assay: Antiplasmodial activity against Plasmodium falciparum K1; type: functional, organism-based
HEK293 [2] = assay: Cytotoxicity against HEK293 cells at 40 uM incubated for 72 hrs by resazurin dye based assay relative to control; type: cell-based; conditions: human, hek293, 72 h
Plasmodium falciparum [3] = assay: Antiplasmodial activity against chloroquine-sensitive Plasmodium falciparum 3D7 incubated for 72 hrs by DAPI-staining based imaging analysis; type: functional, organism-based; conditions: 3D7, 72 h
HEK293 [4] = assay: Cytotoxicity against HEK293 cells incubated for 72 hrs by resazurin dye based assay; type: cell-based; conditions: Homo sapiens, HEK293, 72 h
[5] = Stability of compound; type: physicochemical

| IC50 (Plasmodium falciparum [1]) [µM] | IC50 (Plasmodium falciparum [3]) [µM] | Structure (SMILES) | IC50 (HEK293 [4]) [µM] | further results |
| --- | --- | --- | --- | --- |
| 1 to 18 |  | OCCNc1nccc2c1[nH]c1ccccc12 |  |  |
| 1 to 18 |  | CCN(CC)C1CCN(c2nccc3c2[nH]c2ccccc23)CC1 |  |  |
| 1 to 18 |  | c1ccc2c(c1)[nH]c1c(N3CCOCC3)nccc12 |  |  |
|  | > 40 | c1ccc2c(c1)[nH]c1c([C@H]3CC[C@@H]3c3nccc4c3[nH]c3ccccc34)nccc12 | > 40 | Activity (HEK293 [2]): 29% |
| 1 to 18 |  | c1ccc2c(c1)[nH]c1c(N3CCCCC3)nccc12 |  |  |
| 1 to 18 |  | c1ccc2c(c1)[nH]c1c(N3CCC(N4CCCC4)CC3)nccc12 |  |  |
|  | 14 | OCC(O)c1nccc2c1[nH]c1ccccc12 (stereo not drawn) | > 40 | Activity (HEK293 [2]): 37% |
| 1 to 18 |  | OC1CCCN(c2nccc3c2[nH]c2ccccc23)C1 (stereo not drawn) |  |  |
|  | 10 | c1ccc2c(c1)[nH]c1c([C@H]3CC[C@H]3c3nccc4c3[nH]c3ccccc34)nccc12 | 10 |  |
| 1 to 18 |  | CN1CCN(c2nccc3c2[nH]c2ccccc23)CC1 |  |  |

Further lines, the compound ahead of its results:

| Structure (SMILES) | IC50 (Plasmodium falciparum [1]) [µM] | IC50 (Plasmodium falciparum [3]) [µM] | IC50 (HEK293 [4]) [µM] | further results |
| --- | --- | --- | --- | --- |
| CCc1nccc2c1[nH]c1ccccc12 |  | 18 | > 40 | Activity (HEK293 [2]): 35% |
| CN(C)CCc1nccc2c1[nH]c1ccccc12 |  |  |  | Stability [5]: Unstable |
| CN(C)CCCNc1nccc2c1[nH]c1ccccc12 | 1 to 18 |  |  |  |
| CCN(CC)CCCNc1nccc2c1[nH]c1ccccc12 | 1 to 18 |  |  |  |
| c1ccc2c(c1)[nH]c1c(N3CCC(N4CCCCCC4)CC3)nccc12 | 1 to 18 |  |  |  |
| c1ccc2c(c1)[nH]c1c(N3CCC(N4CCCCC4)CC3)nccc12 | 1 to 18 |  |  |  |
| CCN(CC)CCCC(C)Nc1nccc2c1[nH]c1ccccc12 (stereo not drawn) | 1 to 18 |  |  |  |
| CCc1ncc(S(C)(=O)=O)c2c1[nH]c1ccccc12 |  | 21 | > 40 | Activity (HEK293 [2]): 17% |
| O=S(=O)(O)CCc1nccc2c1[nH]c1ccccc12 |  | 12 | > 40 | Activity (HEK293 [2]): 30% |
| C[C@H]1[C@H](OC(=O)CCC(=O)O)O[C@@H]2O[C@@]3(C)CC[C@H]4[C@H](C)CC[C@@H]1[C@@]24OO3 [ARTESUNATE] |  | 0.0003 |  |  |
| CCN(CC)CCCC(C)Nc1ccnc2cc(Cl)ccc12 (stereo not drawn) [CHLOROQUINE] |  |  | > 40 | Activity (HEK293 [2]): 40% |
